The term pIC50 denotes the IC50 on a negative log10 scale, so that one unit is a factor of ten.

pIC50: −log10 of the molar value. Some results are limits rather than exact numbers.

The record followed here is patent publication US10961202B2, “Bis-benzimidazole compounds and methods of using the same” (THE SCRIPPS RESEARCH INSTITUTE, priority 2017, dated 2021).

One test concerns r(CUG)12-MBNL1 complex. As to the kind of experiment: Inhibition of the r(CUG)12-MBNL1 complex measured by TR-FRET. The format is biochemical. To be noted: Table L; 80 nM RNA, 60 nM MBNL1-His6. In general terms: Time-resolved FRET reads energy transfer from a long-lived donor to a nearby acceptor.
With `N=C(N)Nc1ccc2nc(-c3ccc(-c4ccc(-c5nc6ccc(NC(=N)N)cc6[nH]5)cc4)cc3)[nH]c2c1` [Compound 81], the pIC50 was 5.21.

`N#Cc1ccc2nc(-c3ccc(-c4nc5ccc(C#N)cc5[nH]4)cc3)[nH]c2c1` [Compound 9, 2,2′-(1,4-phenylene)bis(1H-benzo[d]imidazole-6-carbonitrile)]: the pIC50 was 4.59.

As for `C#CCCCCN(C)CCNC(=O)c1ccc2nc(-c3ccc(-c4nc5ccc(C(=O)NCCN(C)C)cc5[nH]4)cc3)[nH]c2c1` [Compound 73], the pIC50 was 5.02.

Molecule `CNCCNC(=O)c1ccc2nc(-c3ccc(-c4nc5ccc(C(=O)NCCNC)cc5[nH]4)cc3)[nH]c2c1` [Compound 28, 2,2′-(1,4-phenylene)bis(N-(2-(methylamino)ethyl)-1H-benzo[d]imidazole-6-carboxamide)] had a negative logarithm of the IC50 (pIC50) of 4.91.

`N=C(NO)c1ccc(-c2nc3cc(-c4ccc5[nH]c(-c6ccc(C(=N)NO)cc6)nc5c4)ccc3[nH]2)cc1` [Compound 98] showed a pIC50 of 3.84.

On to `COC(=O)[C@H](CCCNC(=N)N)NC(=O)c1ccc2nc(-c3ccc(-c4nc5ccc(C(=O)N[C@@H](CCCNC(=N)N)C(=O)OC)cc5[nH]4)cc3)[nH]c2c1` [Compound 39], for which the pIC50 is 5.36. Against the preceding molecule, the pIC50 is 1.52 log units higher.

Consider `Cn1c(-c2ccc(-c3nc4ccc(N)cc4n3C)cc2)nc2ccc(N)cc21` [Compound 85, 2,2′-(1,4-phenylene)bis(1-methyl-1H-benzimidazol-6-amine)], for which the pIC50 was less than 3.70.

Take `O=C(O)c1ccc2nc(-c3ccc(-c4nc5ccc(C(=O)O)cc5[nH]4)cc3)[nH]c2c1` [Compound 11, 2,2′-(1,4-phenylene)bis(1H-benzo[d]imidazole-6-carboxylic acid)]: the pIC50 was less than 3.70.

Still in this test, the particulars now being: Table M; 80 nM RNA, 60 nM MBNL1-His6.
As to `CN(C)CCNC(=O)c1ccc(-c2nc3cc(-c4ccc5[nH]c(-c6ccc(C(=O)NCCCCCCNC(=O)c7ccc(-c8nc9cc(-c%10ccc%11[nH]c(-c%12ccc(C(=O)NCCN(C)C)cc%12)nc%11c%10)ccc9[nH]8)cc7)cc6)nc5c4)ccc3[nH]2)cc1` [Compound 419], the pIC50 was 5.31.

The molecule `NCC(=O)NCC(=O)NCc1cn(CCN2CCN(CCNC(=O)c3ccc4nc(-c5ccc(-c6nc7ccc(C(=O)NCCN8CCCCC8)cc7[nH]6)cc5)[nH]c4c3)CC2)nn1` [Compound 178, N-(2-(4-(2-(4-((2-(2-aminoacetamido)acetamido)methyl)-1H-1,2,3-triazol-1-yl)ethyl)piperazin-1-yl)ethyl)-2-(4-(6-((2-(piperidin-1-yl)ethyl)carbamoyl)-1H-benzo[d]imidazol-2-yl)phenyl)-1H-benzo[d]imidazole-6-carboxamide] showed a pIC50 of 5.10.

`CN(C)CCCOc1cccc2nc(-c3ccc(-c4nc5cccc(O)c5[nH]4)cc3)[nH]c12` [Compound 216, 2-(4-(7-(3-(dimethylamino)propoxy)-1H-benzo[d]imidazol-2-yl)phenyl)-1H-benzo[d]imidazol-7-ol]: the pIC50 was 3.90.

Turning to `C[C@@H](NC(=O)CN(CCN)C(=O)c1ccc(-c2nc3cc(-c4ccc5[nH]c(-c6ccc(OCCCN(C)C)cc6)nc5c4)ccc3[nH]2)cc1)C(=O)N[C@H](C)C(=O)N[C@H](C)C(=O)N[C@H](C)C(=O)N(CCNC(=O)c1ccc(-c2nc3cc(-c4ccc5[nH]c(-c6ccc(OCCCN(C)C)cc6)nc5c4)ccc3[nH]2)cc1)CC(N)=O` [Compound 447], the pIC50 was 4.65.

`CN(C)CCCOc1ccc(-c2nc3cc(-c4ccc5[nH]c(-c6ccc(C(=O)NCCCN=[N+]=[N-])cc6)nc5c4)ccc3[nH]2)cc1` [Compound 400] showed a pIC50 of 4.83.

In turn, `CN(C)CCNC(=O)c1ccc(-c2nc3ccc(-c4ccc5nc(-c6ccc(C(=O)N7CCCC8C9CCCN(C(=O)c%10ccc(-c%11nc%12ccc(-c%13ccc%14nc(-c%15ccc(C(=O)NCCN(C)C)cc%15)[nH]c%14c%13)cc%12[nH]%11)cc%10)C9CCC87)cc6)[nH]c5c4)cc3[nH]2)cc1` (stereo not shown) [Compound 452] showed a negative-log IC50 (pIC50) of 5.51.

`OCCCOc1ccc2nc(-c3ccc(-c4nc5ccc(OCCCO)cc5[nH]4)cc3)[nH]c2c1` [Compound 223, 3,3′-((1,4-phenylenebis(1H-benzo[d]imidazole-2,5-diyl))bis(oxy))bis(propan-1-ol)] showed a pIC50 of less than 3.70.

In turn, `CN1CC[C@@H](Oc2ccc(-c3nc4cc(-c5ccc6[nH]c(-c7ccc(O)cc7)nc6c5)ccc4[nH]3)cc2)C1` [Compound 374] showed a negative-log IC50 (pIC50) of 4.89.

Molecule `CN(C)CCCOc1ccc2nc(-c3ccc(-c4nc5ccc(C(=O)O)cc5[nH]4)cc3)[nH]c2c1` [Compound 250, 2-(4-(6-(3-(dimethylamino)propoxy)-1H-benzo[d]imidazol-2-yl)phenyl)-1H-benzo[d]imidazole-6-carboxylic acid] had a pIC50 of less than 3.70.

The molecule `CN(C)CCOc1ccc(-c2nc3cc(-c4ccc5[nH]c(-c6cccc(OCCN(C)C)c6)nc5c4)ccc3[nH]2)cc1` [Compound 355] had a pIC50 of 4.95.

`CN(C)CCNC(=O)c1ccc(-c2nc3cc(-c4ccc5[nH]c(-c6ccc(C(=O)NCCCNC(=O)c7ccc(-c8nc9cc(-c%10ccc%11[nH]c(-c%12ccc(C(=O)NCCN(C)C)cc%12)nc%11c%10)ccc9[nH]8)cc7)cc6)nc5c4)ccc3[nH]2)cc1` [Compound 413] had a pIC50 of 5.48.

`CN(C)CCCOc1ccc2nc(-c3ccc(-c4nc5ccc(OCCCC(=O)NCCN(C)C)cc5[nH]4)cc3)[nH]c2c1` [Compound 318] showed a pIC50 of less than 3.70.

`Cc1cc(-c2nc3cc(-c4ccc5[nH]c(-c6ccc(OCCCN(C)C)c(C)c6)nc5c4)ccc3[nH]2)ccc1OCCCN(C)C` [Compound 364]: the pIC50 was 5.12.

Turning to `CN(C)CCNC(=O)c1ccc(-c2nc3ccc(-c4ccc5nc(-c6ccc(C(=O)NC[C@H]7CCCN7C(=O)c7ccc(-c8nc9ccc(-c%10ccc%11nc(-c%12ccc(C(=O)NCCN(C)C)cc%12)[nH]c%11c%10)cc9[nH]8)cc7)cc6)[nH]c5c4)cc3[nH]2)cc1` [Compound 453], the pIC50 is 5.21.

In the case of `CN(C)CCCOc1ccc2nc(-c3ccc(-c4nc5ccc(OCCCN(C)C)cc5[nH]4)c(N)c3)[nH]c2c1` [Compound 291, 3,3′-(((2-amino-1,4-phenylene)bis(1H-benzo[d]imidazole-2,6-diyl))bis(oxy))bis(N,N-dimethylpropan-1-amine)], the pIC50 was 4.21.

`CN(C)CCNC(=O)c1ccc(-c2nc3cc(-c4ccc5[nH]c(-c6ccc(C(=O)NCCCCCCCCCCNC(=O)c7ccc(-c8nc9cc(-c%10ccc%11[nH]c(-c%12ccc(C(=O)NCCN(C)C)cc%12)nc%11c%10)ccc9[nH]8)cc7)cc6)nc5c4)ccc3[nH]2)cc1` [Compound 424] gave a negative logarithm of the IC50 (pIC50) of 5.24. Compared with the last molecule, the pIC50 is 1.03 log units higher.

On to `CN1CCC(NC(=O)c2ccc(-c3nc4cc(-c5ccc6[nH]c(-c7ccc(C(=O)O)cc7)nc6c5)ccc4[nH]3)cc2)CC1` [Compound 344], for which the pIC50 was 3.81.

`Cc1cc(-c2nc3cc(-c4ccc5[nH]c(-c6ccc(OCCCN(C)C)c(C)c6)nc5c4)ccc3[nH]2)ccc1O` [Compound 365] showed a pIC50 of 5.01.

For `CN(C)CCNC(=O)c1ccc(-c2nc3cc(-c4ccc5[nH]c(-c6ccc(C(=O)NCCCCCCCCNC(=O)c7ccc(-c8nc9cc(-c%10ccc%11[nH]c(-c%12ccc(C(=O)NCCN(C)C)cc%12)nc%11c%10)ccc9[nH]8)cc7)cc6)nc5c4)ccc3[nH]2)cc1` [Compound 422], the pIC50 was 5.25.

For the molecule `CN(C)CCNC(=O)c1ccc(-c2nc3ccc(-c4ccc5nc(-c6ccc(C(=O)N(C)CCOCCOCCOCCOCc7cn(CCCNCC(=O)N8CCC[C@H]8C(=O)N8CCC[C@H]8C(=O)N8CCC[C@H]8C(=O)N8CCC[C@H]8C(=O)N(CCCn8cc(COCCOCCOCCOCCN(C)C(=O)c9ccc(-c%10nc%11ccc(-c%12ccc%13nc(-c%14ccc(C(=O)NCCN(C)C)cc%14)[nH]c%13c%12)cc%11[nH]%10)cc9)nn8)CC(N)=O)nn7)cc6)[nH]c5c4)cc3[nH]2)cc1` [Compound 433], the pIC50 is less than 3.70.

In turn, `CN(C)CCCOc1ccc2nc(-c3ccc(-c4nc5ccc(OCCCC(F)(F)F)cc5[nH]4)cc3)[nH]c2c1` [Compound 240, N,N-dimethyl-3-((2-(4-(6-(4,4,4-trifluorobutoxy)-1H-benzo[d]imidazol-2-yl)phenyl)-1H-benzo[d]imidazol-6-yl)oxy)propan-1-amine] showed a pIC50 of 4.15.

`CN(C)CCCOc1ccc2nc(-c3ccc(-c4nc5ccc(SCCCN(C)C)cc5[nH]4)cc3)[nH]c2c1` [Compound 228, 3-((2-(4-(6-(3-(dimethylamino)propoxy)-1H-benzo[d]imidazol-2-yl)phenyl)-1H-benzo[d]imidazol-6-yl)thio)-N,N-dimethylpropan-1-amine]: the negative-log IC50 (pIC50) is 4.33. This pIC50 and that of the molecule before are within 0.2 log units of each other.

As for `CN(C)CCCOc1ccc2c(c1)nc(-c1ccc(-c3nc4ccc(OCCCN(C)C)cc4n3C)cc1)n2C` [Compound 311], the pIC50 is less than 3.70.

As to `CN(C)CCCCc1ccc(-c2nc3cc(-c4ccc5[nH]c(-c6ccc(CCCCN(C)C)cc6)nc5c4)ccc3[nH]2)cc1` [Compound 385], the negative logarithm of the IC50 (pIC50) is 4.51.

In turn, `COc1ccc2nc(-c3ccc(-c4nc5ccc(OCCCN(C)C)cc5[nH]4)cc3)[nH]c2c1` [Compound 245, 3-((2-(4-(6-methoxy-1H-benzo[d]imidazol-2-yl)phenyl)-1H-benzo[d]imidazol-6-yl)oxy)-N,N-dimethylpropan-1-amine] showed a pIC50 of 4.08.

`CN(C)CCCOc1ccc2[nH]c(-c3ccc(-c4nc5cc(OCCCN(C)C)ccc5n4C)cc3)nc2c1` [Compound 313] showed a pIC50 of less than 3.70.

`CN(C)CC(C)(C)COc1ccc2nc(-c3ccc(-c4nc5ccc(OCC(C)(C)CN(C)C)cc5[nH]4)cc3)[nH]c2c1` [Compound 180] gave a pIC50 of 4.10.

`COCCn1c(-c2ccc(-c3nc4ccc(OCCCN(C)C)cc4[nH]3)cc2)nc2ccc(OCCCN(C)C)cc21` [Compound 330]: the pIC50 was 3.88.

In turn, `C[C@@H](C(=O)N(C)[C@@H](C)C(=O)N(C)[C@@H](C)C(=O)N(C)[C@@H](C)C(=O)N(CCCn1cc(COCCOCCN(C)C(=O)c2ccc(-c3nc4ccc(-c5ccc6nc(-c7ccc(C(=O)NCCN(C)C)cc7)[nH]c6c5)cc4[nH]3)cc2)nn1)CC(N)=O)N(C)C(=O)CNCCCn1cc(COCCOCCN(C)C(=O)c2ccc(-c3nc4ccc(-c5ccc6nc(-c7ccc(C(=O)NCCN(C)C)cc7)[nH]c6c5)cc4[nH]3)cc2)nn1` [Compound 430] had a pIC50 of 5.11.
